Where two headings read alike, the source gives them in different places.
Tests used:
Format in all cases: cell-based
hGIPR = molecular target: T1, hGIPR (Homo sapiens, UniProt P48546); experiment: Functional cAMP formation (HTRF) in HEK-293 clonal cells expressing hGIPR, 0.1% bovine casein, without or with 1.0% human serum albumin; conditions: for Emax: read-out: hGIPR Emax, % ± SEM; for EC50: geometric mean, read-out: hGIPR EC50, nM (SEM, n)
T1 construct: expressed in transfected cells
T1 sequence (P48546 22-466): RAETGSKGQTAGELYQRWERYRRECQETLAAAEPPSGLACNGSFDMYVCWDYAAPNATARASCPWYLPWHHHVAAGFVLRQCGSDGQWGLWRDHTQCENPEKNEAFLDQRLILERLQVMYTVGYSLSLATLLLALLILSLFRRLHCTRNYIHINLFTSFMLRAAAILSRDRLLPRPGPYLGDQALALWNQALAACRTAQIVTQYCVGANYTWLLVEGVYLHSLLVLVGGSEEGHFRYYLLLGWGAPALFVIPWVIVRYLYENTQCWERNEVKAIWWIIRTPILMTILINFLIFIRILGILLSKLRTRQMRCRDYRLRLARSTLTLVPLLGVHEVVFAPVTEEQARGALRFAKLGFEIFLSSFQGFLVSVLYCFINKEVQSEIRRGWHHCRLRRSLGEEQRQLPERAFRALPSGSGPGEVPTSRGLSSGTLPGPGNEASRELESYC
Outline: (§1)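 Cells were stimulated with peptide for 30 min at 37° C, then intracellular cAMP was measured by competitive HTRF (665/620 nm ratio) and converted to nM using a cAMP standard curve. Relative EC50 and Emax came from four-parameter logistic fits of percent maximal response against peptide concentration.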

hGCGR = molecular target: T2, hGCGR (Homo sapiens, UniProt P47871); experiment: Functional cAMP formation (HTRF) in HEK-293 clonal cells expressing hGCGR, 0.1% bovine casein, without or with 1.0% human serum albumin; conditions: geometric mean, read-out: hGCGR EC50, nM (SEM, n)
T2 construct: expressed in transfected cells
T2 sequence (P47871 26-477): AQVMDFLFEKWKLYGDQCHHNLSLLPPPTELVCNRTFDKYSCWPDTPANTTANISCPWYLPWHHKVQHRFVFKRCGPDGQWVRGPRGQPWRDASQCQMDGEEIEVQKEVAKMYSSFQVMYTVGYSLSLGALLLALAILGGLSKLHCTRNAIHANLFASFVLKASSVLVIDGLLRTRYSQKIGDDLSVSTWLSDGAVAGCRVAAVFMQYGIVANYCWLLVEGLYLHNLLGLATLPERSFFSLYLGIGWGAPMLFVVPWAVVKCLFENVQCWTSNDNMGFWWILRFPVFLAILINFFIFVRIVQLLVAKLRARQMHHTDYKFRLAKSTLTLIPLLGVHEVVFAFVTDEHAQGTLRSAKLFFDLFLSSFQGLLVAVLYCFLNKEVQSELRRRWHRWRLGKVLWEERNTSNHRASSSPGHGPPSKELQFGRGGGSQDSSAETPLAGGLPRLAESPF
Outline: as §1

hGLP-1R = hGLP-1R (Homo sapiens, UniProt P43220); experiment: Functional cAMP formation (HTRF) in HEK-293 clonal cells expressing hGLP-1R, 0.1% bovine casein, without or with 1.0% human serum albumin; design: expressed in transfected cells; conditions: HEK293, percent of maximal response to GLP-1(7-36)NH2; 37° C., 0.1% bovine casein; arithmetic mean; read-out: hGLP-1R Emax, % ± SEM
Chain of hGLP-1R (P43220 24-463): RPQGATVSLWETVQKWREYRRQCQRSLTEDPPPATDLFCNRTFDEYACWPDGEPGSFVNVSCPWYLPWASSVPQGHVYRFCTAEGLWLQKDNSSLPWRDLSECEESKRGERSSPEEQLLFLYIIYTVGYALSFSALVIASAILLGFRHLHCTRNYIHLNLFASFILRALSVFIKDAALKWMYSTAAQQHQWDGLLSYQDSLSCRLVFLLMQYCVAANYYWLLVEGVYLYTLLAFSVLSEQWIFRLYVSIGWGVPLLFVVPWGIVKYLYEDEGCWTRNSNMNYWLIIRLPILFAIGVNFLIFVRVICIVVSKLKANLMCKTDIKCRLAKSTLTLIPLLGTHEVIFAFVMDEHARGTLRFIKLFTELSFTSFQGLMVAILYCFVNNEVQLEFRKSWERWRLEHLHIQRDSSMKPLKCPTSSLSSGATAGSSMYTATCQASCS
Outline: as §1

[1] = HEK293, percent of maximal response to GIP(1-42)NH2, 37° C., 0.1% bovine casein, arithmetic mean
[2] = cAMP, incubated at 37° C., 0.1% bovine casein (no human serum albumin)
[3] = 0.1% bovine casein and 1.0% human serum albumin, 37° C.

Row | SMILES | Emax (hGIPR; [1]) | EC50 (hGCGR; [2]) | Emax (hGLP-1R) | EC50 (hGIPR; [3]) | Emax (hGIPR; HEK293, 0.1% bovine casein and 1.0% human serum albumin, 37° C., percent of maximal response to GIP(1-42)NH2) | EC50 (hGIPR; [2]) | EC50 (hGCGR; [3])
1 | CC[C@H](C)[C@H](NC(=O)[C@H](CC(C)C)NC(=O)[C@](C)(Cc1ccc(O)cc1)NC(=O)[C@@H](CCC(=O)O)NC(=O)[C@@H](NC(=O)[C@H](Cc1ccccc1)NC(=O)[C@H](CCC(=O)O)NC(=O)[C@H](Cc1ccncc1)NC(=O)[C@H](CCC(N)=O)NC(=O)[C@H](C)NC(=O)[C@H](CCCCNC(=O)COCCOCCNC(=O)COCCOCCNC(=O)CC[C@H](NC(=O)CCCCCCCCCCCCC(=O)O)C(=O)O)NC(=O)[C@H](CCCN)NC(=O)[C@H](CC(=O)O)NC(=O)[C@H](CC(C)C)NC(=O)[C@](C)(CC(C)C)NC(=O)[C@@H](NC(=O)[C@H](CO)NC(=O)[C@H](Cc1ccncc1)NC(=O)[C@H](CC(=O)O)NC(=O)[C@H](CO)NC(=O)[C@@H](NC(=O)[C@](C)(Cc1ccccc1F)NC(=O)[C@@H](NC(=O)CNC(=O)[C@H](CCC(=O)O)NC(=O)C(C)(C)NC(=O)[C@@H](N)Cc1ccc(O)cc1)[C@@H](C)O)[C@@H](C)O)[C@@H](C)CC)[C@@H](C)CC)C(=O)N[C@@H](CCC(=O)O)C(=O)NCC(=O)NCC(=O)N[C@@H](CCCCNC(=O)COCCOCCNC(=O)COCCOCCNC(=O)CC[C@H](NC(=O)CCCCCCCCCCCCC(=O)O)C(=O)O)C(=O)N[C@@H](CO)C(=O)N[C@@H](CO)C(=O)NCC(=O)N[C@@H](C)C(=O)N1CCC[C@H]1C(=O)N1CCC[C@H]1C(=O)N1CCC[C@H]1C(=O)N[C@@H](CO)C(N)=O [Example 156] | 89.9% | > 9950 nM | 110% | – | – | – | –
2 | CC[C@H](C)[C@H](NC(=O)[C@H](CC(C)C)NC(=O)[C@](C)(Cc1ccc(O)cc1)NC(=O)[C@@H](CCC(=O)O)NC(=O)[C@@H](NC(=O)[C@H](Cc1ccccc1)NC(=O)[C@H](Cc1ccncc1)NC(=O)C(C)(C)NC(=O)[C@H](CCC(N)=O)NC(=O)[C@H](C)NC(=O)[C@H](CCCCNC(=O)COCCOCCNC(=O)COCCOCCNC(=O)CC[C@H](NC(=O)CCCCCCCCCCCCC(=O)O)C(=O)O)NC(=O)[C@H](CCCN)NC(=O)[C@H](CC(=O)O)NC(=O)[C@H](CC(C)C)NC(=O)[C@](C)(CC(C)C)NC(=O)[C@@H](NC(=O)[C@H](CO)NC(=O)[C@H](Cc1ccncc1)NC(=O)[C@H](CC(=O)O)NC(=O)[C@H](CO)NC(=O)[C@@H](NC(=O)[C@](C)(Cc1ccccc1F)NC(=O)[C@@H](NC(=O)CNC(=O)[C@H](CCC(=O)O)NC(=O)C(C)(C)NC(=O)[C@@H](N)Cc1ccc(O)cc1)[C@@H](C)O)[C@@H](C)O)[C@@H](C)CC)[C@@H](C)CC)C(=O)N[C@@H](CCC(=O)O)C(=O)NCC(=O)NCC(=O)N[C@@H](CCCCNC(=O)COCCOCCNC(=O)COCCOCCNC(=O)CC[C@H](NC(=O)CCCCCCCCCCCCC(=O)O)C(=O)O)C(=O)N[C@@H](CO)C(=O)N[C@@H](CO)C(=O)NCC(=O)N[C@@H](C)C(=O)N1CCC[C@H]1C(=O)N1CCC[C@H]1C(=O)N1CCC[C@H]1C(=O)N[C@@H](CO)C(N)=O [Example 157] | 98.8 ± 1.33% | > 9950 nM | 98.5 ± 4.73% | 0.718 nM | 89.6 ± 3.39% | 0.0286 nM | > 9950 nM

— patent US20230265151A1, “GIP/GLP1 CO-AGONIST COMPOUNDS” (priority 2020, published 2023)
